biological target: MNK2a (Homo sapiens (Human), UniProt Q9HBH9); assay: MNK2a in vitro kinase assay (Assay 2), ADP-Glo; type: biochemical; settings: read-out: MNK2 IC50
Method: B. MNK2a In vitro Kinase Assay (Assay 2)
ASSAY SETUP: The inhibition of kinase activity of MNK2a was assessed using pre-activated GST-MNK2a. The white, 384-well OptiPlate F plates were purchased from PerkinElmer. The ADP-Glo Kinase Assay (including ultra pure ATP) was purchased from Promega (V9103). Activated MNK2a was obtained as described in WO2011/104340. […] ID No. 5 of WO 2011/104340 by the C-terminal —CONH2 group, was purchased from Thermo Fisher Scientific. All other materials were of highest grade commercially available. Compounds are tested in either serial dilutions or single dose concentrations. The compound stock solutions are 10 mM in 100% DMSO The serial compound dilutions are prepared in 100% DMSO followed by 1:27.3 intermediate dilution in assay buffer. The final DMSO concentration in assay will be <3%. In the 384-well plates 3 μl of test compound from the intermediate dilution is mixed with 4 μl of the activated MNK2 enzyme (final concentration of 10 nM) and 4 μl of the peptide (final concentration of 25 μM)/ultra pure ATP (final concentration of 20 μM), all dissolved in assay buffer. This step is followed by an incubation time of 90 min, then 10 μl of ADP Glo reagent are added, followed by 40 min of incubation. Then 20 μl of kinase detection reagent are admixed. The plates are sealed and after an incubation period of 30 min, the luminescence signal is measured in an Envision reader to determine the amount of produced ADP. All incubation steps are performed at room temperature. The assay buffer consists of 20 mM HEPES, 2 mM DTT, 0.01% BSA, 20 mM MgCl2 and 0.1% Pluronic F-127.
The luminescent signal generated is proportional to the ADP concentration produced and is correlated with activated MNK2 activity. The analysis of the data is performed by the calculation of the percentage of ATP consumption of activated MNK2 in the presence of the test compound compared to the consumption of ATP in the presence of activated MNK2 without compound. (RLU(sample)−RLU(low control))*100/(RLU(high value)−RLU(low control)) [RLU=relative luminescence units]
[…] values based on dose response curves are calculated with the AssayExplorer software.

Chain of MNK2a (Q9HBH9 whole entry): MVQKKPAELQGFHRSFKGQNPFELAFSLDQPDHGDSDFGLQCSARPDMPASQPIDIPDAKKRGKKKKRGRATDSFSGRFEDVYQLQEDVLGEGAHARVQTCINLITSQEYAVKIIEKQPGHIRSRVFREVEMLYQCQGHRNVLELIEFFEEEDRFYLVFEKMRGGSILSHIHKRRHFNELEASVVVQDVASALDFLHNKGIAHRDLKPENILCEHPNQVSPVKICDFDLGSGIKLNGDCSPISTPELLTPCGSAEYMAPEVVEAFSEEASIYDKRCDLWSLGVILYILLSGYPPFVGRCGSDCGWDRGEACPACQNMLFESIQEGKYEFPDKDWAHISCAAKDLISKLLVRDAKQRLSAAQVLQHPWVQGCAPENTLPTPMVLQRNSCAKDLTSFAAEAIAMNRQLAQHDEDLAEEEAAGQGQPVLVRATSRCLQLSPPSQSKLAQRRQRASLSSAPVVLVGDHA

Compound | IC50
C[C@H](C#N)NC(=O)[C@@H](C)Oc1cc(F)ccc1Nc1ncnc2cc(N=S3(=O)CCC3)cc(F)c12 [Example 4.113] | 1 nM
Cc1cc(N=S2(=O)CCC2)cc2ncnc(Nc3ccc(F)cc3O[C@H](C)C(=O)NC34CC(C3)C4)c12 [Example 4.082] | 2 nM
Cc1cc(N=S2(=O)CCCC2)cc2ncnc(Nc3ccc(F)cc3OC(C)C(C)(C)C#N)c12 (stereo not shown) [Example 2.007] | 3 nM
Cc1cc(N=S2(=O)CCC2)cc2ncnc(Nc3ccc(Cl)cc3O[C@H](C)C(=O)NC(C)C(F)F)c12 (stereo partly shown) [Example 4.125] | 1 nM
Cc1cc(N=S(C)(C)=O)cc2ncnc(Nc3ccc(Cl)cc3O[C@H](C)C(=O)NCC(F)F)c12 [Example 4.142] | 2 nM
Cc1cc(N=S(C)(C)=O)cc2ncnc(Nc3cccnc3O[C@H](C)C(=O)NCC(F)(F)F)c12 [Example 2.013] | 2 nM
CC(NC(=O)[C@@H](C)Oc1cc(F)ccc1Nc1ncnc2cc(N=S3(=O)CCC3)cc(Cl)c12)C(F)F (stereo partly shown) [Example 4.126] | 2 nM
Cc1cc(N=S2(=O)CCC2)cc2ncnc(Nc3ccc(F)cc3O[C@H](C)C(=O)NC(C)C(F)F)c12 (stereo partly shown) [Example 4.109] | 2 nM
C[C@@H](Oc1cc(F)ccc1Nc1ncnc2cc(N=S(C)(C)=O)cc(Cl)c12)C(=O)NCC(F)F [Example 4.080] | 2 nM
C[C@@H](Oc1cc(F)ccc1Nc1ncnc2cc(N=S(C)(=O)C(C)(C)C)cc(F)c12)C(=O)NCC(F)(F)F (stereo partly shown) [Example 2.040] | 18 nM
CC(NC(=O)[C@@H](C)Oc1cc(F)ccc1Nc1ncnc2cc(N=S(C)(C)=O)cc(F)c12)C(F)F (stereo partly shown) [Example 4.083] | 8 nM
Cc1cc(N=S2(=O)CCC2)cc2ncnc(Nc3ccc(Cl)nc3O[C@H](C)C(=O)N[C@@H](C)C(F)(F)F)c12 [Example 4.094] | 1 nM
CC(NC(=O)[C@@H](C)Oc1cc(F)ccc1Nc1ncnc2cc(N=S3(=O)CCC3)cc(F)c12)C(F)F (stereo partly shown) [Example 4.130] | 3 nM
Cc1nnc(C(C)Oc2cc(F)ccc2Nc2ncnc3cc(N=S(C)(C)=O)cc(C)c23)o1 (stereo not shown) [Example 3.041] | 33 nM
C[C@@H](Oc1cc(F)ccc1Nc1ncnc2cc(N=S(C)(C)=O)cc(Cl)c12)C(=O)NCCF [Example 4.078] | 2 nM
CC(C)NC(=O)[C@@H](C)Oc1cc(F)ccc1Nc1ncnc2cc(N=S3(=O)CCC3)cc(F)c12 [Example 4.114] | 5 nM
Cc1cc(N=S(C)(C)=O)cc2ncnc(Nc3cccnc3OC(C)C(F)(F)F)c12 (stereo not shown) [Example 1.017] | 12 nM
Cc1cc(N=S(C)(=O)C2CC2)cc2ncnc(Nc3ccc(F)cc3O[C@H](C)C(=O)NCC(F)(F)F)c12 (stereo partly shown) [Example 2.042] | 5 nM
C[C@@H](Oc1cc(F)ccc1Nc1ncnc2cc(N=S3(=O)CCC3)cc(F)c12)C(=O)NCC(F)(F)C(F)(F)F [Example 4.129] | 2 nM
C[C@@H](Oc1cc(F)ccc1Nc1ncnc2cc(N=S(C)(C)=O)cc(Cl)c12)C(=O)NC(CF)CF [Example 4.120] | 2 nM

Compound | IC50
COc1cc(N=S(C)(=O)C2CC2)cc2ncnc(Nc3ccc(F)cc3O[C@H](C)C(=O)NCC(F)(F)F)c12 (stereo partly shown) [Example 2.030] | 4 nM
COc1cc(N=S(C)(C)=O)cc2ncnc(Nc3cccnc3O[C@H](C)C(=O)NCC(F)(F)F)c12 [Example 6.004] | 3 nM
Cc1cc(N=S2(=O)CCC2)cc2ncnc(Nc3cccnc3O[C@H](C)C(=O)NCC(F)F)c12 [Example 2.021] | 2 nM
Cc1cc(N=S(C)(C)=O)cc2ncnc(Nc3ccc(F)cc3O[C@H](C)C(=O)N3CCC3)c12 [Example 4.049] | 19 nM
Cc1cc(N=S2(=O)CCC2)cc2ncnc(Nc3ccc(Cl)cc3O[C@H](C)C(=O)NCC(F)F)c12 [Example 4.111] | 1 nM
CCCNC(=O)[C@@H](C)Oc1cc(F)ccc1Nc1ncnc2cc(N=S3(=O)CCCC3)cc(C)c12 [Example 4.033] | 2 nM
C[C@@H](Oc1cc(F)ccc1Nc1ncnc2cc(N=S3(=O)CCC3)cc(Cl)c12)C(=O)N[C@H](C)C(F)(F)F [Example 4.090] | 1 nM
Cc1cc(N=S2(=O)CCC2)cc2ncnc(Nc3ccc(F)cc3O[C@H](C)C(=O)NCC(F)F)c12 [Example 4.141] | 1 nM
COC(=O)N1CC2(C1)CS(=O)(=Nc1cc(C)c3c(Nc4ccc(F)cc4O[C@H](C)C(=O)NCC(F)(F)F)ncnc3c1)C2 [Example 2.032] | 1 nM
COc1cc(N=S2(=O)CCC2)cc2ncnc(Nc3ccc(F)cc3O[C@H](C)C(=O)N[C@@H](C)C(F)(F)F)c12 [Example 6.001] | 5 nM
C[C@@H](C#N)NC(=O)[C@@H](C)Oc1cc(Cl)ccc1Nc1ncnc2cc(N=S3(=O)CCCC3)cc(F)c12 [Example 4.093] | 1 nM
Cc1cc(N=S2(=O)CCCC2)cc2ncnc(Nc3ccc(F)cc3O[C@H](C)C(=O)N(C)C3CCCC3)c12 [Example 4.026] | 3 nM
COc1cc(N=S2(=O)CCC2)cc2ncnc(Nc3ccc(F)cc3O[C@H](C)C(=O)NCC#N)c12 [Example 4.115] | 2 nM
Cc1cc(N=S2(=O)CCC2)cc2ncnc(Nc3cccnc3O[C@H](C)C(=O)NCC(F)(F)F)c12 [Example 2.039] | 3 nM
Cc1cc(N=S2(=O)CCCC2)cc2ncnc(Nc3cccnc3O[C@H](C)C(=O)NCC(F)(F)F)c12 [Example 2.022] | 2 nM
C[C@@H](Oc1cc(F)ccc1Nc1ncnc2cc(N=S3(=O)CCC3)cc(F)c12)C(=O)NC(CF)CF [Example 4.128] | 2 nM
Cc1cc(N=S(C)(C)=O)cc2ncnc(Nc3ccc(F)cc3OCC#N)c12 [Example 3.005] | 1 nM
COc1cc(N=S2(=O)CCC2)cc2ncnc(Nc3ccc(Cl)cc3O[C@H](C)C(=O)NCC(F)(F)F)c12 [Example 4.087] | 2 nM
C[C@@H](Oc1cc(F)ccc1Nc1ncnc2cc(N=S(C)(C)=O)cc(F)c12)C(=O)NCC(F)F [Example 4.133] | 4 nM
C[C@H](C#N)NC(=O)[C@@H](C)Oc1cc(F)ccc1Nc1ncnc2cc(N=S3(=O)CCC3)cc(Cl)c12 [Example 4.112] | 2 nM

Compound | IC50
Cc1cc(N=S2(=O)CCC2)cc2ncnc(Nc3ccc(F)cc3O[C@H](CO)CF)c12 [Example 2.036] | 4 nM
Cc1cc(N=S(C)(C)=O)cc2ncnc(Nc3ccc(F)cc3O[C@H](C)C(=O)NCC(F)(F)C(F)(F)F)c12 [Example 4.119] | 2 nM
C[C@H](NC(=O)[C@@H](C)Oc1cc(F)ccc1Nc1ncnc2cc(N=S3(=O)CCC3)cc(Cl)c12)C(F)(F)F [Example 4.096] | 1 nM
Cc1cc(N=S(C)(C)=O)cc2ncnc(Nc3ccc(F)cc3O[C@H](C)C(=O)N3CCC(=O)CC3)c12 [Example 4.046] | 15 nM
Cc1cc(N=S2(=O)CC(C)(C)C2)cc2ncnc(Nc3ccc(Cl)cc3O[C@H](C)C(=O)N[C@@H](C)C(F)(F)F)c12 [Example 2.034] | 1 nM
CC(NC(=O)[C@@H](C)Oc1cc(F)ccc1Nc1ncnc2cc(N=S(C)(C)=O)cc(Cl)c12)C(F)F (stereo partly shown) [Example 4.134] | 3 nM
Cc1cc(N=S(C)(C)=O)cc2ncnc(Nc3ccc(F)cc3OC(C)c3ccnn3C)c12 (stereo not shown) [Example 3.023] | 42 nM
C[C@@H](Oc1cc(F)ccc1Nc1ncnc2cc(N=S3(=O)CC4(COC4)C3)cc(Cl)c12)C(=O)NCC(F)(F)F [Example 2.024] | 3 nM
Cc1cc(N=S2(=O)CC(C)(C)C2)cc2ncnc(Nc3ccc(F)cc3O[C@H](C)C(=O)NCC(F)(F)F)c12 [Example 2.044] | 1 nM
C[C@@H](Oc1ncccc1Nc1ncnc2cc(N=S(C)(C)=O)cc(F)c12)C(=O)NCC(F)(F)F [Example 2.031] | 10 nM
CC(C)NC(=O)[C@@H](C)Oc1cc(F)ccc1Nc1ncnc2cc(N=S(C)(C)=O)cc(Cl)c12 [Example 4.076] | 4 nM
Cc1cc(N=S2(=O)CC[C@H](N)C2)cc2ncnc(Nc3ccc(F)cc3O[C@H](C)C(=O)NCC(F)(F)F)c12 (stereo partly shown) [Example 2.019] | 1 nM
Cc1cc(N=S(C)(C)=O)cc2ncnc(Nc3ccc(F)cc3O[C@H](C)C(=O)NCC#N)c12 [Example 4.039] | 1 nM
Cc1noc(C(C)Oc2cc(F)ccc2Nc2ncnc3cc(N=S(C)(C)=O)cc(C)c23)n1 (stereo not shown) [Example 3.036] | 9 nM
Cc1cc(N=S(C)(=O)C(C)C)cc2ncnc(Nc3ccc(F)cc3O[C@H](C)C(=O)NCC(F)(F)F)c12 (stereo partly shown) [Example 2.046] | 3 nM
Cc1cc(N=S2(=O)CCC2)cc2ncnc(Nc3ccc(F)cc3O[C@H](C)C(=O)NC(CF)CF)c12 [Example 4.131] | 1 nM
Cc1cc(N=S(C)(C)=O)cc2ncnc(Nc3ccc(F)cc3OC(C)Cn3ccnc3)c12 (stereo not shown) [Example 3.004] | 17 nM
Cc1cc(N=S(C)(C)=O)cc2ncnc(Nc3ccc(F)cc3O[C@H](C)C(=O)N[C@H](C)C(F)(F)F)c12 [Example 3.051] | 3 nM

— US9139577B2, “Sulfoximine substituted quinazolines for pharmaceutical compositions” (Boehringer Ingelheim International GmbH, priority 2013, dated 2015)
